Values of other authors in US10335411B2, “Administration of ubiquitin-activating enzyme inhibitor and radiation” (Millennium Pharmaceuticals, Inc., priority 2014, dated 2019).

Legend:
[1] = tested on: leukemia and myeloma cell lines; conditions: Xu et al., 2010; cited from earlier work
[2] = tested on: mouse acute myeloid leukemia (AML model); conditions: Xu et al., 2010; cited from earlier work

Question: What does the source list for `O=C1NN(c2ccc(F)c(Cl)c2)C(=O)/C1=C\c1ccc([N+](=O)[O-])o1` [PYZD-4409]?
Answer: cell death [1]: induced cell death; anti-tumor activity [2]: induced anti-tumor activity
